Tests used:
[1] = Visible particles by Seidenader after spiking FFA to inorganic salt solutions; assay type: physicochemical; conditions: for Visible particles in Seidenader: dependent on salt concentration over time, much lesser extent than CaCl2 and NaAlO2; for Visible particles Seidenader d0 / Visible particles Seidenader d2 / Visible particles Seidenader d7 / Visible particles Seidenader d1: FFA below solubility limit; for Visible particles Seidenader d0: d0 directly after spiking
Procedure: Del.) at 100 rpm at 25° C., for 1 hour. […] FFA concentrations were verified for selected by LC-MS samples acc. Honemann et al.^7
[…] NaCl, NaAlO2. NaBO2. B2O3, and CaCl2 (Sigma-Aldrich/Merck. Darmstadt. Del.) were selected as their dissolution products (ions) represent typical glass leachables from Type I borosilicate glass. The pH of the NaAlO2 and NaBO2 stock solutions was adjusted to pH 6 using HCl and subsequently filtered using 0.22 μm PVDF Sterivex filters (Merck Millipore. Darmstadt. Del.) and true elemental concentrations were determined by inductively-coupled plasma mass spectrometry (ICP-MS). […] Spiking experiments with FFA were performed in duplicates.
(§1) Samples were analyzed by visual inspection on a Seidenader V 90-T instrument (Seidenader Maschinenbau GmbH. Markt Schwaben. Del.) as previously described by Ditter et al.^9 and using a black/white panel according Ph. Eur. 2.9.20.^10 and classified as Many particles (>7). Few particles (4-7), or Practically free of particles (0-4) in E/P box, and Many particles (>10). Few particles (6-10). Essentially free of particles (1-5), or Free of particles (0) by Seidenader.
(§2) pH of all solutions was verified. Samples were visually inspected immediately after spiking and regularly for up to 7 days. Further characterization by HIAC, turbidity, FTIR, and SEM-EDX was performed on day 1 only. All samples were analyzed when equilibrated to room temperature (4 h).
(§3) Different inorganic salt solutions, i.e. CaCl2. NaAlO2. NaBO2. B2O3, and NaCl, were prepared simulating artificial glass leachables. Myristic and lauric acid, as main degradation product from hydrolytic PS20 degradation, were added at concentrations below their solubility limit and samples were analyzed for visible particles. SVP, and turbidity. Samples were compared against relevant controls and the pH verified at pH 6.

[2] = Visible particles in E/P box (Ph. Eur. 2.9.20) after spiking FFA to inorganic salt solutions; assay type: physicochemical; conditions: FFA below solubility limit; for Visible particles E/P d0: d0 directly after spiking
Procedure: Aqueous stock solutions were prepared in 0.02% PS20 (Croda. Edison, N.J., USA) at defined concentrations of (1) 5 mg/mL and (2) 12.5 mg/mL (lauric acid. Sigma-Aldrich/Merck. Darmstadt. Del.) or (1) 1.5 mg/mL and (2) 5 mg/mL (myristic acid, Sigma-Aldrich/Merck. Darmstadt. Del.) as previously described by Doshi et al.^6 The procedure was adapted that the FFA/PS20 stock solution was sterile filtered using 0.22 μm PVDF Steriflip filters (Merck Millipore. Darmstadt. Del.) before 1:10 dilution and subsequently homogenized without a magnetic stirrer using a Heidolph Rotamax 120 orbital shaker (Schwabach. Del.) at 100 rpm at 25° C., for 1 hour. After 1:500 dilution, the solution was homogenized for 1 hour at 25° C., before homogenization at 2-8° C., overnight, 12-40 μL of stock solution were used for spiking experiments yielding final FFA concentrations of (1) 10 μg/mL and (2) 25 μg/mL (lauric acid) or (1) 3 μg/mL and (2) 10 μg/mL (myristic acid). Dilutions with stock solutions 1 yield FFA concentration below their solubility limit, whereas stock solutions 2 act as positive control confirmed by the formation of visible particles. FFA concentrations were verified for selected by LC-MS samples acc. Honemann et al.^7
Aqueous stock solutions of different salts were prepared at 1 mg/mL and used for spiking experiments to final concentrations between […]. NaCl, NaAlO2. NaBO2. B2O3, and CaCl2 (Sigma-Aldrich/Merck. Darmstadt. Del.) were selected as their dissolution products (ions) represent typical glass leachables from Type I borosilicate glass. The pH of the NaAlO2 and NaBO2 stock solutions was adjusted to pH 6 using HCl and subsequently filtered using 0.22 μm PVDF Sterivex filters (Merck Millipore. Darmstadt. Del.) and true elemental concentrations were determined by inductively-coupled plasma mass spectrometry (ICP-MS). Elemental concentrations were 0,048 μg/mL Aluminium and 295 μg/mL sodium and 78 μg/mL boron and 168 μg/mL, respectively. Spiking experiments with FFA were performed in duplicates.
as §1, §2, §3

[3] = CaCl2 250 μg/mL (Ca2+ 90 μg/mL)
[4] = CaCl2 500 μg/mL (Ca2+ 180 μg/mL)
[5] = CaCl2 1000 μg/mL (Ca2+ 360 μg/mL)
[6] = NaAlO2 nominal 250 μg/mL (0.012 μg/mL ion)
[7] = NaAlO2 nominal 500 μg/mL (0.024 μg/mL ion)
[8] = NaAlO2 nominal 1000 μg/mL (0.048 μg/mL ion)

In the case of CCCCCCCCCCCC(=O)O [Lauric acid, lauric acid], the “Visible particles in Seidenader” value ([1]; B2O3 solution) is reported as “visible particles were obtained”, the “Visible particles Seidenader d0” value [1, 3] is reported as “/ (Free of particles (0, /) by Seidenader)” and the “Visible particles Seidenader d2” value [1, 3] is reported as “xxx (Many particles (>10, xxx))”. The “Visible particles Seidenader d7” value [1, 3] was “xxx (Many particles (>10, xxx))”, the “Visible particles Seidenader d0” value [1, 4] was “/ (Free of particles (0, /) by Seidenader)” and the “Visible particles Seidenader d2” value [1, 4] was “xxx (Many particles (>10, xxx))”. For the same compound, the “Visible particles Seidenader d7” value [1, 4] was “xxx (Many particles (>10, xxx))”, the “Visible particles Seidenader d2” value [1, 5] was “xxx (Many particles (>10, xxx))” and the “Visible particles Seidenader d0” value [1, 6] was “/ (Free of particles (0, /) by Seidenader)”. For the same compound, the “Visible particles Seidenader d1” value [1, 6] was “x (Essentially free of particles (1-5, x))”, the “Visible particles Seidenader d2” value [1, 6] was “x (Essentially free of particles (1-5, x))” and the “Visible particles Seidenader d0” value [1, 7] was “x (Essentially free of particles (1-5, x))”. For the same compound, the “Visible particles Seidenader d1” value [1, 7] was “x (Essentially free of particles (1-5, x))”, the “Visible particles Seidenader d1” value [1, 8] was “x (Essentially free of particles (1-5, x))” and the “Visible particles Seidenader d7” value [1, 8] was “xxx (Many particles (>10, xxx))”. For the same compound, the “Visible particles in Seidenader” value ([1]; NaBO2 solution) was “visible particles were obtained”, the “Visible particles E/P d0” value [2, 3] was “/ (Practically free of particles (0-4, /) in E/P box)” and the “Visible particles E/P d2” value [2, 3] was “/ (Practically free of particles (0-4, /) in E/P box)”. The “Visible particles E/P d7” value [2, 3] was “/ (Practically free of particles (0-4, /) in E/P box)”, the “Visible particles E/P d0” value [2, 4] was “/ (Practically free of particles (0-4, /) in E/P box)” and the “Visible particles E/P d2” value [2, 4] was “/ (Practically free of particles (0-4, /) in E/P box)”. For the same compound, the “Visible particles E/P d7” value [2, 4] was “/ (Practically free of particles (0-4, /) in E/P box)”, the “Visible particles E/P d0” value [2, 5] was “/ (Practically free of particles (0-4, /) in E/P box)” and the “Visible particles E/P d2” value [2, 5] was “xx (Few particles (4-7, xx))”. The “Visible particles E/P d7” value [2, 5] was “/ (Practically free of particles (0-4, /) in E/P box)”, the “Visible particles E/P d0” value [2, 6] was “/ (Practically free of particles (0-4, /) in E/P box)” and the “Visible particles E/P d1” value [2, 6] was “/ (Practically free of particles (0-4, /) in E/P box)”. The “Visible particles E/P d2” value [2, 6] was “/ (Practically free of particles (0-4, /) in E/P box)”, the “Visible particles E/P d7” value [2, 6] was “/ (Practically free of particles (0-4, /) in E/P box)” and the “Visible particles E/P d0” value [2, 7] was “/ (Practically free of particles (0-4, /) in E/P box)”. The “Visible particles E/P d1” value [2, 7] was “/ (Practically free of particles (0-4, /) in E/P box)”, the “Visible particles E/P d2” value [2, 7] was “/ (Practically free of particles (0-4, /) in E/P box)” and the “Visible particles E/P d7” value [2, 7] was “/ (Practically free of particles (0-4, /) in E/P box)”. The “Visible particles E/P d0” value [2, 8] was “/ (Practically free of particles (0-4, /) in E/P box)”, the “Visible particles E/P d1” value [2, 8] was “/ (Practically free of particles (0-4, /) in E/P box)” and the “Visible particles E/P d2” value [2, 8] was “/ (Practically free of particles (0-4, /) in E/P box)”. The “Visible particles E/P d7” value [2, 8] was “/ (Practically free of particles (0-4, /) in E/P box)”.

Source: patent US20220395458A1, “PREVENTION OF VISIBLE PARTICLE FORMATION IN AQUEOUS PROTEIN SOLUTIONS” (Hoffmann-La Roche Inc., priority 2019, published 2022)
